Laboratory results from US6008209A, “Method of using vitamin D3 analogs with bis C-20 side chains” (Hoffmann-La Roche Inc., priority 1998, dated 1999).
One block for each compound: values may come before it.

Columns and labels:
[1] = tested on: parathyroid hormone (serum PTH); assay: Serum PTH suppression in rat renal insufficiency model (7/8 nephrectomy, secondary hyperparathyroidism); assay type: in vivo, Female Sprague Dawley rats; details: for PTH T = 1 - T = 0: po, seven days
Procedure: (§1) Female Sprague Dawley rats were anesthesized, their right kidney removed and 2-3 branches of the left renal artery were ligated to achieve 7/8 nephrectomy. They were placed on a high phosphorous diet (0.6% Ca and 0.8 phosphorous). Approximately 3-6 weeks after surgery, rats were bled to screen serum PTH levels and rats with PTH levels between 100-500 pg/ml were selected for the study.
(§2) 1 6 Formula Ia, 10 μg/kg/day, po
(§3) 2 6 Formula Ia, 1 μg/kg/day, po
(§4) 3 6 Formula Ia, 0.1 μg/kg/day, po
(§5) There was a pre-bleed (T=0) and each group was dosed daily for seven days by oral gavage with either the compound of Formula Ia (10, 1 or 0.1 μg/kg/day), vehicle control or 1,24(OH)2 vitamin D3 positive control. Compounds were predissolved in ethanol and diluted with vehicle (Miglyol 812) followed by evaporation of the ethanol.
(§6) After the last day of dosing, the animals were bled again (T=1) and sacrificed. Serum PTH assays were done with Nichols Institute Diagnostic Kit #40-2240. Serum calcium assays were done with Sigma Diagnostic Kit #587 with o-cresophthaleiri. Serum creatinine assays were done with Sigma Diagnostic Kit #1600-320 with […].

[2] = Serum calcium in rat renal insufficiency model (7/8 nephrectomy); assay type: in vivo, Female Sprague Dawley rats; parameters: Final Ca Levels: unit not given here; details: for Final Ca Levels: po, seven days, serum
Procedure: as §1, §2, §3, §4, §5, §6

[3] = tested on: MCF-7 cells; assay: Cell proliferation assay in MCF-7 breast cancer cells; assay type: cell-based, human; details: for IC50: Homo sapiens, MCF7, 168 h, MCF-7, 7 days, MTT, read-out: IC50 (half-maximal reduction in 570 nm absorbance)
Procedure: MCF-7 cells are human mammary carcinoma cells that are positive for estrogen receptors. The potential activity of vitamin D3 analogs against breast cancer was assessed from inhibition of proliferation of MCF-7 cells in culture.
(§7) MCF-7 cells were plated at 5000 cells/well in 96-well plates and incubated at 37° C. in 5% CO2 /95% air in Dulbecco's Modified Eagle Medium containing 10% fetal bovine serum 700 nM insulin, 2 mM glutamine, 0.1 mM MEM non-essential amino acids and 1 mM sodium pyruvate. Stock solutions of vitamin D3 analogs were prepared at a concentration of 10 mM in absolute ethanol and stored at -20° C. under argon. One day after plating, MCF-7 cells were refed with either control medium or medium containing varying concentrations of the vitamin D3 analog.
For each vitamin D3 analog, the IC50 value was determined from a graph relating the optical density at 570 nm to the concentration used. The IC50 value was defined as the concentration of the vitamin D3 analog corresponding to half-maximal reduction in 570 nm absorbance.

[4] = tested on: ZR-75 cells; assay: Cell proliferation assay in ZR-75 breast cancer cells; assay type: cell-based, human; details: for IC50: Homo sapiens, ZR75, 240 h, ZR-75, 10 days, MTT, read-out: IC50 (half-maximal reduction in 570 nm absorbance)
Procedure: ZR-75 cells are human mammary carcinoma cells that are positive for estrogen receptors. The potential activity of vitamin D3 analogs against breast cancer was assessed from inhibition of proliferation of ZR-75 cells in culture.
as §7, with “ZR-75” for “MCF-7”, “12,500” for “5000”, “24-well” for “96-well”, “RPMI medium” for “Dulbecco's Modified Eagle Medium”, “and” for “700 nM insulin,”, “glutamine.” for “glutamine, 0.1 mM MEM non-essential amino acids and 1 mM sodium pyruvate.”
The IC50 value was defined as the concentration of the vitamin D3 analog corresponding to half-maximal reduction in 570 nm absorbance.

[5] = tested on: postmenopausal osteoporosis; details: cited from earlier work
[6] = tested on: steroid-induced bone loss; details: 0.5 to 1.0 micrograms/day plus calcium 1000 mg/day, with or without intranasal calcitonin 400 IU/day; cited from earlier work
[7] = tested on: bone; details: animal studies; cited from earlier work
[8] = tested on: PTH synthesis; details: cited from earlier work
[9] = tested on: murine leukemia; details: murine leukemia model systems; cited from earlier work
[10] = cited from earlier work

Final Ca Levels ([2]; 0.1 μg/kg/day): 10.20
Final Ca Levels ([2]; 1 μg/kg/day): 10.35
Final Ca Levels ([2]; 10 μg/kg/day): 11.97
elevated calcium levels ([2]; in words): without causing elevated calcium levels
IC50 [3]: 0.8 nM
IC50 [4]: 0.3 nM
Compound: C=C1/C(=C\C=C2/CCC[C@]3(C)[C@@H](C(CCCC(C)(C)O)CCCC(C)(C)O)CC[C@@H]23)C[C@@H](O)C[C@@H]1O [Formula Ia, (1α,3β,5Z,7E)-21-(3-hydroxy-3-methylbutyl)-9,10-Secocholesta-5,7,10, (19)-triene-1,3,25-triol]
PTH T = 1 - T = 0 ([1]; 0.1 μg/kg/day): 112 pg/mL
PTH T = 1 - T = 0 ([1]; 1 μg/kg/day): -124 pg/mL
PTH T = 1 - T = 0 ([1]; 10 μg/kg/day): -132 pg/mL
suppressing the elevated levels of parathyroid hormone, versus 1,25(OH)2 vit. D3 ([1]; in words): more effective than 1,25(OH)2 vit. D3
potency relative to 1,25-dihydroxy-cholecalciferol in inhibition of MCF-7 growth ([3]; MCF-7): approximately 50 times
potency relative to 1,25-dihydroxy-cholecalciferol in inhibition of ZR-75 growth ([4]; ZR-75): more than 40 times

Compound: C=C1/C(=C\C=C2/CCC[C@]3(C)[C@@H]([C@H](C)CCCC(C)(C)O)CC[C@@H]23)C[C@@H](O)C[C@@H]1O [1,25(OH)2 vit. D3, 1,25-Dihydroxy-cholecalciferol]
PTH T = 1 - T = 0 ([1]; 0.1 μg/kg (table 2; table 1: 0.2 μg/kg/day)): -66 pg/mL
IC50 [3]: 40 nM
IC50 [4]: 13 nM
lower rate of new vertebral fractures versus elemental calcium 1000 mg/day ([5]; 0.25 microgram twice daily, 3 years, mild to moderate disease): 3 fold
hypercalcaemia ([5]; at recommended dosages): infrequent and mild
therapeutic window: proximity of therapeutic and toxic doses ([5]; human, in vivo): close proximity of therapeutic and toxic doses
tolerability ([5]; overall): well tolerated
steroid-induced bone loss [6]: prevented steroid-induced bone loss
bone anabolic activity [7]: suggested bone anabolic activity
suppressive action on PTH synthesis [8]: direct suppressive action on PTH synthesis
anti-proliferative and differentiating effect [9]: not only an anti-proliferative effect, but also a differentiating effect
hypercalcemia in vivo ([10]; high dose treatment): hypercalcemia observed with high dose treatment
therapeutic ratio ([10]; human usage): poor therapeutic ratio (hypercalciuria and hypercalcemia as well as nephrotoxicity)
hypercalcemic effects ([10]; narrow therapeutic window, especially at high doses): potent hypercalcemic effects
